Drawing on BindingDB's records for doi:10.1021/jm0001976 (Merck Research Laboratories, 2000), this text covers IC50 for four compounds.

pIC50: −log10 of the molar value.

The target in the assay is Histone deacetylase (Eimeria tenella). Kind of assay: Tested for Histone deacetylase enzyme inhibition assay using Eimeria tenella extract.

On to `CCC(=O)CCCCC[C@@H]1NC(=O)[C@H]2CCCCN2C(=O)[C@H]([C@@H](C)CC)NC(=O)[C@H](c2cn(OC)c3ccccc3c2=O)NC1=O`, for which the negative-log IC50 (pIC50) is 8.42.

`CCC(=O)CCCCC[C@@H]1NC(=O)[C@H]2CCCCN2C(=O)[C@H]([C@@H](C)CC)NC(=O)[C@H](c2cn(CC)c3ccccc3c2=O)NC1=O` had a pIC50 of 7.96.

`CCC(=O)CCCCC[C@@H]1NC(=O)[C@H]2CCCCN2C(=O)[C@H]([C@@H](C)CC)NC(=O)[C@H](c2cn(C)c3ccccc3c2=O)NC1=O` gave a negative-log IC50 (pIC50) of 8.05.

As to `CCCn1cc([C@@H]2NC(=O)[C@H](CCCCCC(=O)CC)NC(=O)[C@H]3CCCCN3C(=O)[C@H]([C@@H](C)CC)NC2=O)c(=O)c2ccccc21`, the negative logarithm of the IC50 (pIC50) is 7.55.
